Results from US11628202B2, “Methods of reducing the need for surgery in patients suffering from benign prostatic hyperplasia” (Nymox Corporation, priority 2015, dated 2023).

Tested on: patients with moderate to severe symptomatic benign prostatic hyperplasia (BPH)
Assay: Prospective assessment of need for subsequent invasive surgical intervention in BPH patients after NX-1207 injection
Assay type: in vivo, human
Experimental: 645 patients (Group #1) with moderate to severe symptomatic benign prostatic hyperplasia (BPH) were prospectively randomly assigned to blinded treatment with a single therapeutic injection of NX-1207 or placebo (saline vehicle alone), and their clinical BPH signs and symptoms were assessed at weekly, monthly, 3-monthly or longer intervals, for durations of a few months to 5.5 years. None of these patients had received any prior invasive surgical procedures to treat their BPH condition. A prospective assessment was undertaken of all available subjects>=2 years after baseline to determine the usefulness of NX-1207 treatment for the prevention or the delay of the need for surgical procedures (i.e., subsequent invasive surgical intervention) to treat the patient's BPH condition. Patients who received placebo and no drug treatment progressed to invasive surgical procedures within 2 years of baseline in 7.65% of patients.
352 patients (Group #2) who were randomized and blindly treated with NX-1207 or placebo at the same time as Group #1 in Example 1, in addition to the initial treatment, were given a second treatment injection of NX-1207 at intervals of >=1 year after the initial randomization. None of these patients had received any prior invasive surgical procedures to treat their BPH condition. A prospective assessment was undertaken of all available subjects>=2 years after baseline to determine the usefulness of NX-1207 treatment for the prevention or the delay of the need for invasive surgical intervention to treat the patient's BPH condition.
Patients in Examples 1 and 2 were characterized as to whether they had previous treatment failures with conventional oral medications (i.e. “treatment failure”) vs whether they had not received any previous conventional oral medications for their BPH condition (i.e., “treatment naïve”). A prospective assessment was undertaken of all available subjects>=2 years after baseline to determine the usefulness of NX-1207 treatment for the prevention or the delay of the need for subsequent invasive surgical intervention to treat the patient's BPH condition.
In the above examples, the amount of NX-1207 administered was 2.5 mg.

IDQQVLSRIKLEIKRCL [NX-1207, NTP peptide injected once or twice (2.5 mg) in BPH patients]
improvement in reducing the need for subsequent invasive surgical intervention, compared to patients who received a single injection (administered twice): ~69%
improvement in reducing the need for subsequent invasive surgical intervention, compared to patients who received the placebo (administered twice): ~80%
need for subsequent invasive surgical intervention (previous treatment failure subjects, assessed >=2 years after baseline, treatment failure placebo 10.4%): 6.1%
rate of need for invasive surgical procedures (second injection >=1 year after initial randomization, assessed >=2 years after baseline, p<0.001 vs placebo 7.65%, p<0.01 vs single injection 5.1%): 1.6%
reduced rate of invasive surgical procedures within 2 years, compared to placebo (single therapeutic injection, 2.5 mg): 33.3%
patients progressed to invasive surgical procedures within 2 years of baseline (single therapeutic injection, 2.5 mg, BPH patients, no prior invasive surgery, placebo 7.65%): 5.1%
improvement in reducing the need for subsequent invasive surgical intervention, compared to patients who received the placebo (treatment naive patients): ~88%
improvement in reducing the need for subsequent invasive surgical intervention, compared to treatment failure patients who received the NTP peptide (treatment naive patients): ~85%
improvement in reducing the need for subsequent invasive surgical intervention, compared to treatment failure patients who received the placebo (treatment naive patients): ~91%
need for invasive surgical procedures (treatment naïve patients, assessed >=2 years after baseline, placebo controls 7.5%, p<0.01): 0.9%
